Experiment: Biological half-life

- half-life: 15 to 20 min
SMILES: CC[C@H](C)[C@H](NC(=O)[C@H](Cc1ccccc1)NC(=O)[C@H](CCC(=O)O)NC(=O)[C@H](CCCCN)NC(=O)[C@H](C)NC(=O)[C@H](C)NC(=O)[C@H](CCC(N)=O)NC(=O)CNC(=O)[C@H](CCC(=O)O)NC(=O)[C@H](CC(C)C)NC(=O)[C@H](Cc1ccc(O)cc1)NC(=O)[C@H](CO)NC(=O)[C@H](CO)NC(=O)[C@@H](NC(=O)[C@H](CC(=O)O)NC(=O)[C@H](CO)NC(=O)[C@@H](NC(=O)[C@H](Cc1ccccc1)NC(=O)[C@@H](NC(=O)CNC(=O)[C@H](CCC(=O)O)NC(=O)[C@H](C)NC(=O)[C@H](Cc1cnc[nH]1)NC(=O)[C@H](CCCNC(=N)N)NC(=O)[C@H](CCC(=O)O)NC(=O)[C@H](Cc1ccccc1)NC(=O)[C@H](CCC(=O)O)NC(=O)[C@H](CC(=O)O)NC(=O)[C@@H](N)Cc1cnc[nH]1)[C@@H](C)O)[C@@H](C)O)C(C)C)C(=O)N[C@@H](C)C(=O)N[C@@H](Cc1c[nH]c2ccccc12)C(=O)N[C@@H](CC(C)C)C(=O)N[C@H](C(=O)N[C@@H](CCCCN)C(=O)NCC(=O)N[C@@H](CCCNC(=N)N)C(=O)NCC(=O)O)C(C)C [GLP-1(1-37)]

— patent US7138486B2, “Insulinotropic hormone derivatives and uses thereof” (The General Hospital Corporation, priority 1986, dated 2006)
